Measured values reported in ChEMBL document CHEMBL4392870, “Isolation and Biological Activity of 8- Epitetrodotoxin and the Structure of a Possible Biosynthetic Shunt Product of Tetrodotoxin, Cep-226A, from the Newt Cynops ensicauda popei” (J Nat Prod, 2019).

Legend:
[1] = organism: Rana temporaria
[2] = Inhibition of NaV in mouse Neuro2a cells assessed as suppression of ouabain/veratridine-induced reduction in cell viability measured after 20 hrs by WST8 assay
[3] = Inhibition of NaV in mouse Neuro2a cells assessed as suppression of ouabain/veratridine-induced reduction in cell viability measured after 24 hrs by WST8 assay; format: cell-based

Row | SMILES | ED50 [1] | EC50 [2] | EC50 [3]
1 | NC1=N[C@H](O)[C@H]2[C@H]3O[C@]4(O)O[C@@H]([C@@H](O)[C@@]2(N1)[C@@H]4O)[C@]3(O)CO [TETRODOTOXIN] | 4.1 nM | 1.9 nM | –
2 | NC1=N[C@H](O)[C@H]2[C@H]3O[C@]4(O)O[C@@H]([C@@H](O)[C@@]2(N1)[C@@H]4O)[C@@]3(O)CO | 96 nM | 33 nM | –
3 | NC1=N[C@H](O)[C@H]2[C@H]3O[C@]4(O)O[C@@H](C[C@@]2(N1)[C@@H]4O)[C@]3(O)CO | – | – | 250 nM
4 | NC1=N[C@H](O)[C@H]2[C@H]3O[C@]4(O)O[C@@H]([C@H](O)[C@@]2(N1)[C@@H]4O)[C@]3(O)CO | – | 110 nM | –
